Test results published in ChEMBL document CHEMBL1139715, “Synthesis of 3,6-bis[H-Tyr/H-Dmt-NH(CH2)m,n]-2(1H)pyrazinone derivatives: function of alkyl chain length on opioid activity” (Bioorg Med Chem Lett, 2006).

Key:
[1] = biological target: Delta-type opioid receptor (Rattus norvegicus, UniProt P33533); assay: Displacement of [3H]deltorphin II from delta opioid receptor in rat synaptosomes P2 fraction; type: subcellular, Brain
Mu-type opioid receptor [2] = biological target: Mu-type opioid receptor (Rattus norvegicus, UniProt P33535); assay: Displacement of [3H]DAMGO from mu opioid receptor in rat synaptosomes P2 fraction; type: subcellular, Brain
Mu-type opioid receptor (Rattus norvegicus, UniProt P33535), sequence (P33535 whole entry): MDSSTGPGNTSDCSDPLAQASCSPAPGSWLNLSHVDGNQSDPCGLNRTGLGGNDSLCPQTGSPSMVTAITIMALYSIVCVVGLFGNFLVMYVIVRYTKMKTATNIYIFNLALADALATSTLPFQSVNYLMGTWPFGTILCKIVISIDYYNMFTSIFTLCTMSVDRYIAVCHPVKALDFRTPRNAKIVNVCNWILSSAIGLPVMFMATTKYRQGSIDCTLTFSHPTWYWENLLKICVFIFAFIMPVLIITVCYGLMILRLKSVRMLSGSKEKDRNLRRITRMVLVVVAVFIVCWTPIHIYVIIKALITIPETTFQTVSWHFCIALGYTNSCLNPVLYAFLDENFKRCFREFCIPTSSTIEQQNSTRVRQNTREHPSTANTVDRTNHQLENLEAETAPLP

[3] = biological target: Opioid receptors; mu & delta (Rattus norvegicus) (UniProt P33533+P33535); assay: Selectivity for rat mu opioid receptor over rat delta opioid receptor; type: protein assay
Opioid receptors; mu & delta (Rattus norvegicus), sequence (P33533 whole entry, looked up): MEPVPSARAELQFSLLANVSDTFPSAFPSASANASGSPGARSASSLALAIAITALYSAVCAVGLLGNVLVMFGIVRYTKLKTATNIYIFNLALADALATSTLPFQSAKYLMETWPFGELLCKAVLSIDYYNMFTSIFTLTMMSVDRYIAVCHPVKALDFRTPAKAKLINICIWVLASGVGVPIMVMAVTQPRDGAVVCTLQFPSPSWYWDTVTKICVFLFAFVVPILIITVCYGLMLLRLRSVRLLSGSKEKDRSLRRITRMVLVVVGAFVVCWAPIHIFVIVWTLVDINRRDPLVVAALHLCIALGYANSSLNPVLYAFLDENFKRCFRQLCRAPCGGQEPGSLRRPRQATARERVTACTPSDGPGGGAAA
Opioid receptors; mu & delta (Rattus norvegicus), sequence (P33535 whole entry, looked up): as the sequence (P33535 whole entry) above

[4] = biological target: Delta-type opioid receptor (Mus musculus, UniProt P32300); assay: (§1) Activity at delta opioid receptor assessed as inhibition of muscle contraction in mouse vas deferens assay; type: functional, tissue-based
Delta-type opioid receptor (Mus musculus, UniProt P32300), sequence (P32300 whole entry): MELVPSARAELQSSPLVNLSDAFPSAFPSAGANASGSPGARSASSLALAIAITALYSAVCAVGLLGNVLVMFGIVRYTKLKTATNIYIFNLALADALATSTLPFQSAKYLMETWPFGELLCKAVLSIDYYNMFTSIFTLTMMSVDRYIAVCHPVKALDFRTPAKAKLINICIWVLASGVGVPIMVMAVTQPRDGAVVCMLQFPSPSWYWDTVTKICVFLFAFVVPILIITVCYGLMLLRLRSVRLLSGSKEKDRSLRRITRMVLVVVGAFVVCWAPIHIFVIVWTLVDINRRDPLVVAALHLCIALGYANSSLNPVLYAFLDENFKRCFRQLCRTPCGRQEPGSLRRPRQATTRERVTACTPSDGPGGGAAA

[5] = biological target: Delta-type opioid receptor (Mus musculus) (UniProt P32300); assay: as §1; type: functional, tissue-based; details: for inhibition: concentration not given here; for Activity: filed as partial agonist
Delta-type opioid receptor (Mus musculus), sequence (P32300 whole entry): as above

Mu-type opioid receptor [6] = biological target: Mu-type opioid receptor (Cavia porcellus, UniProt P97266); assay: Activity at mu opioid receptor by guinea pig ileum assay; type: functional, tissue-based
Mu-type opioid receptor (Cavia porcellus, UniProt P97266), sequence (P97266 whole entry): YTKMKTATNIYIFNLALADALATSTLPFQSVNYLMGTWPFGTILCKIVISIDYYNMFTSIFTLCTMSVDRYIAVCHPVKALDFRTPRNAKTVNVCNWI

Delta-type opioid receptor (Rattus norvegicus, UniProt P33533), sequence (P33533 whole entry): as the sequence (P33533 whole entry, looked up) above

Row | SMILES | Ki [1] [nM] | Ki (Mu-type opioid receptor [2]) [nM] | Ratio Ki [3] | IC50 [4] [nM] | inhibition [5] [%] | Activity [5] | IC50 (Mu-type opioid receptor [6]) [nM]
1 | Cc1nc(CCCNC(=O)[C@@H](N)Cc2ccc(O)cc2)c(=O)[nH]c1CCCCNC(=O)[C@@H](N)Cc1ccc(O)cc1 | 2770 | 27.4 | 65 | – | – | – | –
2 | Cc1nc(CCCCNC(=O)[C@@H](N)Cc2ccc(O)cc2)c(=O)[nH]c1CCCNC(=O)[C@@H](N)Cc1ccc(O)cc1 | 924 | 7.58 | 220 | – | – | – | –
3 | Cc1cc(O)cc(C)c1C[C@H](N)C(=O)NCCCCc1nc(C)c(CCCNC(=O)[C@@H](N)Cc2c(C)cc(O)cc2C)[nH]c1=O | 31.9 | 0.021 | 1520 | 25.8 | 60 | Partial agonist | 1.79
4 | Cc1cc(O)cc(C)c1C[C@H](N)C(=O)NCCCCc1[nH]c(=O)c(CCCNC(=O)[C@@H](N)Cc2c(C)cc(O)cc2C)nc1C | 18.8 | 0.051 | 369 | > 10000 | 44 | Partial agonist | 4.93
